Blank lines part the entries; values can stand above or below the compound they belong to.
Legend:
[1] = target: T1, Proteinase-activated receptor 4 (Homo sapiens, UniProt Q96RI0); assay: Inhibition of human PAR4 expressed in HEK293 cells assessed as Ala-(L-4-F-Phe)-Pro-Gly-Trp-Leu-Val-Lys-Asn-Gly-induced inhibition of calcium mobilization preincubated for 30 mins followed by Ala-(L-4-F-Phe)-Pro-Gly-Trp-Leu-Val-Lys-Asn-Gly stimulation by FLIPR method; type: functional, cell-based
T1 sequence (Q96RI0 whole entry): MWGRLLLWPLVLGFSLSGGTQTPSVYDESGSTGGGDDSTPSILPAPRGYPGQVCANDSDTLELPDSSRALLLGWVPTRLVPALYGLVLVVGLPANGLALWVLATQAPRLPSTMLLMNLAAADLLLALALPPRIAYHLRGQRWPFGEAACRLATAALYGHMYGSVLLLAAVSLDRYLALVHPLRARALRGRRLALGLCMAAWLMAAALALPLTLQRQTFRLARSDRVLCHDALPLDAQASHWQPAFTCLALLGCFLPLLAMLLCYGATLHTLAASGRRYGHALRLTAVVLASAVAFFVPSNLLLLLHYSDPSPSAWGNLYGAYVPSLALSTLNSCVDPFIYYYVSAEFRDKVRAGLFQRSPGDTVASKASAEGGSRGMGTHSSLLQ

[2] = Inhibition of thrombin-induced platelet aggregation in human platelet-rich plasma incubated for 1 min followed by thrombin addition; type: functional
[3] = Inhibition of PAF-induced platelet aggregation in human platelet-rich plasma incubated for 1 min followed by PAF addition; type: functional
[4] = Inhibition of arachidonic acid-induced platelet aggregation in human platelet-rich plasma incubated for 1 min followed by arachidonic acid addition; type: functional, cell-based
[5] = Inhibition of collagen-induced platelet aggregation in human platelet-rich plasma incubated for 1 min followed by collagen addition; type: functional
[6] = test system: Rhesus monkey; assay: Antithrombotic activity in monkey assessed as increase in mesenteric artery bleeding time at 0.5 mg/kg administered as single dose cotreated with aspirin measured at 2 hrs post dose relative to control; type: functional, Macaca mulatta
[7] = test system: Rhesus monkey; assay: Antithrombotic activity in monkey assessed as increase in mesenteric artery bleeding time at 0.1 mg/kg administered as single dose cotreated with aspirin measured at 2 hrs post dose relative to control; type: functional, Macaca mulatta
[8] = test system: Rhesus monkey; assay: Antithrombotic activity in monkey model of electrolytic carotid artery thrombosis assessed as reduction in thrombus weight at 0.5 mg/kg administered as single dose measured at 2 hrs post dose relative to control; type: functional, Macaca mulatta; design: scale not given: the % may be the effect or the level left
[9] = test system: Rhesus monkey; assay: Antithrombotic activity in monkey model of electrolytic carotid artery thrombosis assessed as reduction in thrombus weight at 0.1 mg/kg administered as single dose measured at 2 hrs post dose; type: functional, Macaca mulatta; design: scale not given: the % may be the effect or the level left
[10] = test system: Rhesus monkey; assay: Antithrombotic activity in monkey model of electrolytic carotid artery thrombosis assessed as reduction in thrombus weight at 0.05 mg/kg administered as single dose measured at 2 hrs post dose; type: functional, Macaca mulatta; design: scale not given: the % may be the effect or the level left
[11] = test system: Rhesus monkey; assay: Antithrombotic activity in monkey assessed as increase in mesenteric artery bleeding time at 0.05 to 0.5 mg/kg administered as single dose measured at 2 hrs post dose relative to control; type: functional, Macaca mulatta; settings: dose 0.05-0.5 mg/kg
[12] = test system: Rhesus monkey; assay: Antithrombotic activity in monkey model of electrolytic carotid artery thrombosis assessed as reduction in thrombus weight at 0.5 mg/kg administered as single dose cotreated with aspirin measured at 2 hrs post dose relative to control; type: functional, Macaca mulatta; design: scale not given: the % may be the effect or the level left
[13] = test system: Rhesus monkey; assay: Antithrombotic activity in monkey assessed as increase in mesenteric artery bleeding time at 4 mg/kg/hr, iv administered as single dose measured at 2 hrs post dose relative to control; type: functional, Macaca mulatta
[14] = test system: Rhesus monkey; assay: Antithrombotic activity in monkey model of electrolytic carotid artery thrombosis assessed as reduction in thrombus weight at 0.1 mg/kg administered as single dose cotreated with aspirin measured at 2 hrs post dose relative to control; type: functional, Macaca mulatta; design: scale not given: the % may be the effect or the level left
[15] = test system: Cynomolgus monkey; assay: Antithrombotic activity in cynomolgus monkey model of electrolytic carotid artery thrombosis assessed as reduction in thrombus weight at 4 mg/kg/hr, iv administered as single dose measured at 2 hrs post dose relative to control; type: functional, Macaca fascicularis; design: scale not given: the % may be the effect or the level left
[16] = test system: Cynomolgus monkey; assay: Antithrombotic activity in cynomolgus monkey model of electrolytic carotid artery thrombosis assessed as reduction in thrombus weight at 0.5 mg/kg, PO administered once daily for 3 days measured at 2 hrs post last dose relative to control; type: functional, Macaca fascicularis; design: scale not given: the % may be the effect or the level left; settings: time 3 day
[17] = Antagonist activity at PAR4 in cynomolgus monkey whole blood assessed as inhibition of Ala-(L-4-F-Phe)-Pro-Gly-Trp-Leu-Val-Lys-Asn-Gly-induced platelet aggregation preincubated for 10 mins followed by Ala-(L-4-F-Phe)-Pro-Gly-Trp-Leu-Val-Lys-Asn-Gly stimulation; type: tissue-based; settings: Macaca fascicularis
[18] = test system: Cynomolgus monkey; assay: Antithrombotic activity in cynomolgus monkey model of electrolytic carotid artery thrombosis assessed as increase in mesenteric bleeding time at 1 mg/kg, PO administered once daily for 3 days measured at 2 hrs post last dose; type: functional, Macaca fascicularis; settings: time 3 day
[19] = test system: Cynomolgus monkey; assay: Antithrombotic activity in cynomolgus monkey model of electrolytic carotid artery thrombosis assessed as increase in provoked kidney bleeding time at 1 mg/kg, PO administered once daily for 3 days measured at 2 hrs post last dose; type: functional, Macaca fascicularis; settings: time 3 day

Compound: COc1cnc2c(-c3nc4cc(F)c(O[C@@H]5CCC(C)(C)[C@@H]5OC(=O)Nc5ccnc(C)n5)cc4s3)cc(C)cc2n1
- IC50 [1]: 0.0024 µM

Compound: COC(=O)c1ccc(-c2nn(-c3ccccc3)c3ccccc23)o1
- IC50 [2]: > 270 µM
- IC50 [3]: > 270 µM

Compound: COC(=O)c1ccc(-c2nn(Cc3ccccc3)c3cc4c(cc23)OCO4)o1
- IC50 [2]: > 270 µM
- IC50 [4]: 92.3 µM
- IC50 [3]: > 270 µM
- IC50 [5]: 157 µM

Compound: COc1cc(OCc2nc(-c3ccc(C(=O)N(C)C)cc3)sc2C)c2cc(-c3cn4nc(OC)sc4n3)oc2c1
- fold change (FC) [6]: 3
- fold change (FC) [7]: 2.6
- IC50 [1]: 0.00045 µM
- Activity [8]: 88%
- Activity [9]: 63%
- Activity [10]: 36%
- fold change (FC) [11]: <=1.2

Compound: CC(=O)Oc1ccccc1C(=O)O [ASPIRIN]
- Activity [12]: 89%
- fold change (FC) [13]: 2.2
- Activity [14]: 50%
- Activity [15]: 12%

Compound: COc1cc(OCc2nc(N3CCOCC3)sc2C)c2cc(-c3cn4nc(OC)sc4n3)oc2c1
- Activity [16]: 50%
- IC50 [17]: 0.0021 µM

Compound: COC(=O)[C@H](c1ccccc1Cl)N1CCc2sccc2C1 [CLOPIDOGREL]
- fold change (FC) [18]: >10
- fold change (FC) [19]: >10

Second part, the compound after the results:

- IC50 [2]: 126 µM
- IC50 [4]: 32.4 µM
- IC50 [3]: 76.3 µM
- IC50 [5]: 59.3 µM
Compound: COC(=O)c1ccc(-c2nn(Cc3ccccc3)c3cc(C)ccc23)o1

- IC50 [4]: 185 µM
Compound: CCOC(=O)c1ccc(-c2nn(Cc3ccccc3)c3ccccc23)cc1

- IC50 [2]: > 270 µM
- IC50 [4]: 156 µM
- IC50 [3]: 235 µM
- IC50 [5]: 148 µM
Compound: O=C(O)c1ccc(-c2nn(Cc3ccccc3)c3ccccc23)cc1

- IC50 [2]: > 270 µM
- IC50 [3]: > 270 µM
Compound: CCOC(=O)c1cccc(-c2nn(Cc3ccccc3)c3ccccc23)c1

Reference: ChEMBL document CHEMBL4732062, “Protease activated receptor 4 (PAR4) antagonists: Research progress on small molecules in the field of antiplatelet agents” (Eur J Med Chem, 2021)
